Measurements from PubChem BioAssay (NCI).
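Compound exposure: 48 hours, 5 concentrations, 96-well plates. The concentration for 50% growth inhibition is given as GI50. TGI denotes the concentration required for complete inhibition of growth.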

Assays:
Experiment in all cases: growth of human tumour cells (NCI), 48 h
[1] = tested on: HOP-92 NSCLC
[2] = tested on: HOP-62 NSCLC
[3] = tested on: SK-MEL-5 melanoma
[4] = tested on: U251 CNS
[5] = tested on: SK-MEL-2 melanoma
[6] = tested on: LOX IMVI melanoma
[7] = tested on: A549 NSCLC
[8] = tested on: HCT-15 colon
[9] = tested on: OVCAR-8 ovarian
[10] = tested on: SF-295 CNS
[11] = tested on: BT-549 breast
[12] = tested on: PC-3 prostate
[13] = tested on: CAKI-1 renal
[14] = tested on: COLO 205 colon
[15] = tested on: CCRF-CEM leukemia
[16] = tested on: 786-0 renal
[17] = tested on: SW-620 colon
[18] = tested on: HT29 colon
[19] = tested on: OVCAR-5 ovarian
[20] = tested on: TK-10 renal
[21] = tested on: SN12C renal
[22] = tested on: A498 renal
[23] = tested on: MOLT-4 leukemia
[24] = tested on: SNB-19 CNS
[25] = tested on: SK-MEL-28 melanoma
[26] = tested on: MDA-MB-231 breast
[27] = tested on: MDA-MB-435
[28] = tested on: DU-145 prostate
[29] = tested on: NCI-H23 lung
[30] = tested on: RXF 393 renal
[31] = tested on: NCI-H460 lung
[32] = tested on: UACC-62 melanoma
[33] = tested on: ACHN renal
[34] = tested on: HL-60(TB) leukemia
[35] = tested on: HCC-2998 colon
[36] = tested on: KM12 colon
[37] = tested on: T-47D breast
[38] = tested on: IGROV1 ovarian
[39] = tested on: RPMI-8226 leukemia
[40] = tested on: HS 578T breast
[41] = tested on: UACC-257 melanoma
[42] = tested on: OVCAR-4 ovarian
[43] = tested on: NCI-H522 lung
[44] = tested on: K-562 leukemia
[45] = tested on: NCI/ADR-RES ovarian
[46] = tested on: SF-539 CNS
[47] = tested on: EKVX NSCLC
[48] = tested on: M14 melanoma
[49] = tested on: UO-31 renal
[50] = tested on: SNB-75 CNS
[51] = tested on: SK-OV-3 ovarian
[52] = tested on: NCI-H226 lung
[53] = tested on: SF-268 CNS
[54] = tested on: MALME-3M melanoma
[55] = tested on: MCF7 breast
[56] = tested on: SR leukemia
[57] = tested on: HCT-116 colon

Compound `CN(C)CCNC(=O)c1ccc(-c2nc3ccc4[nH]ncc4c3c3c2COCC3)cc1` has a GI50 [1] of 1000 nM, a TGI [1] of 5860 nM and a GI50 [2] of 1100 nM. The TGI [2] was 4070 nM, the GI50 [3] was 2270 nM and the TGI [3] was 6210 nM. For the same compound, the GI50 [4] was 659 nM, the TGI [4] was 16300 nM and the GI50 [5] was 360 nM. For the same compound, the TGI [5] was 1120 nM, the GI50 [6] was 465 nM and the TGI [6] was 1850 nM. For the same compound, the GI50 [7] was 3180 nM, the TGI [7] was greater than 100000 nM and the GI50 [8] was 10800 nM. For the same compound, the TGI [8] was greater than 100000 nM, the GI50 [9] was 1230 nM and the TGI [9] was 11100 nM. It also gave a GI50 [10] of 3270 nM, a TGI [10] of 16000 nM and a GI50 [11] of 624 nM. The TGI [11] was 2370 nM, the GI50 [12] was 1120 nM and the TGI [12] was 8120 nM. For the same compound, the GI50 [13] was 1200 nM, the TGI [13] was 12700 nM and the GI50 [14] was 480 nM. It also gave a TGI [14] of 2050 nM, a GI50 [15] of 374 nM and a TGI [15] of 50400 nM. It also gave a GI50 [16] of 2050 nM, a TGI [16] of 9430 nM and a GI50 [17] of 527 nM. For the same compound, the TGI [17] was 4880 nM, the GI50 [18] was 2050 nM and the TGI [18] was 6990 nM. For the same compound, the GI50 [19] was 3010 nM, the TGI [19] was 28200 nM and the GI50 [20] was 1450 nM. It also gave a TGI [20] of 7130 nM, a GI50 [21] of 1000 nM and a TGI [21] of 5400 nM. For the same compound, the GI50 [22] was 1190 nM, the TGI [22] was 2810 nM and the GI50 [23] was 604 nM. The TGI [23] was 5210 nM, the GI50 [24] was 587 nM and the TGI [24] was 7470 nM. It also gave a GI50 [25] of 1280 nM, a TGI [25] of 3940 nM and a GI50 [26] of 791 nM. For the same compound, the TGI [26] was 5000 nM, the GI50 [27] was 677 nM and the TGI [27] was 2150 nM. It also gave a GI50 [28] of 1490 nM, a TGI [28] of 8680 nM and a GI50 [29] of 1240 nM. It also gave a TGI [29] of 3310 nM, a GI50 [30] of 239 nM and a TGI [30] of 1040 nM. The GI50 [31] was 2200 nM, the TGI [31] was 5460 nM and the GI50 [32] was 767 nM. For the same compound, the TGI [32] was 2570 nM, the GI50 [33] was 2850 nM and the TGI [33] was 21700 nM. For the same compound, the GI50 [34] was 1300 nM, the TGI [34] was 4880 nM and the GI50 [35] was 1080 nM. For the same compound, the TGI [35] was 3240 nM, the GI50 [36] was 955 nM and the TGI [36] was 5260 nM. It also gave a GI50 [37] of 750 nM, a TGI [37] greater than 100000 nM and a GI50 [38] of 1280 nM. For the same compound, the TGI [38] was 9200 nM, the GI50 [39] was 2170 nM and the TGI [39] was 7310 nM. It also gave a GI50 [40] of 523 nM, a TGI [40] of 3580 nM and a GI50 [41] of 2410 nM. For the same compound, the TGI [41] was 8170 nM, the GI50 [42] was 1850 nM and the TGI [42] was 8910 nM. For the same compound, the GI50 [43] was 188 nM, the TGI [43] was 372 nM and the GI50 [44] was 740 nM. It also gave a TGI [44] greater than 100000 nM, a GI50 [45] of 24100 nM and a TGI [45] greater than 100000 nM. For the same compound, the GI50 [46] was 512 nM, the TGI [46] was 2210 nM and the GI50 [47] was 2170 nM. It also gave a TGI [47] of 12800 nM, a GI50 [48] of 1370 nM and a TGI [48] of 3270 nM. For the same compound, the GI50 [49] was 6750 nM, the TGI [49] was 62400 nM and the GI50 [50] was 382 nM. The TGI [50] was 1460 nM, the GI50 [51] was 1060 nM and the TGI [51] was 28500 nM. It also gave a GI50 [52] of 1240 nM, a TGI [52] of 7140 nM and a GI50 [53] of 292 nM. The TGI [53] was 1820 nM, the GI50 [54] was 786 nM and the TGI [54] was 2690 nM. For the same compound, the GI50 [55] was 293 nM, the TGI [55] was 7660 nM and the GI50 [56] was 301 nM. It also gave a TGI [56] of 2250 nM, a GI50 [57] of 367 nM and a TGI [57] of 11300 nM.
